Experimental data published in PubChem BioAssay (NCI).
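A five-concentration, 48-hour dose response in 96-well plates underlies each endpoint, interpolated linearly between surrounding concentrations. TGI: concentration producing complete growth inhibition.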

Assays:
Test in all cases: NCI tumour cell line growth inhibition, 48 h
OVCAR-8 ovarian = system: OVCAR-8 ovarian
ACHN renal = system: ACHN renal
SF-295 CNS = system: SF-295 CNS
MOLT-4 leukemia = system: MOLT-4 leukemia
DLD-1 colon = system: DLD-1 colon
UO-31 renal = system: UO-31 renal
SN12C renal = system: SN12C renal
NCI-H460 lung = system: NCI-H460 lung
OVCAR-3 ovarian = system: OVCAR-3 ovarian
SK-OV-3 ovarian = system: SK-OV-3 ovarian
SF-539 CNS = system: SF-539 CNS
U251 CNS = system: U251 CNS
HT29 colon = system: HT29 colon
IGROV1 ovarian = system: IGROV1 ovarian
MALME-3M melanoma = system: MALME-3M melanoma
HL-60(TB) leukemia = system: HL-60(TB) leukemia
HOP-62 NSCLC = system: HOP-62 NSCLC
LOX IMVI melanoma = system: LOX IMVI melanoma
HCT-15 colon = system: HCT-15 colon
HCC-2998 colon = system: HCC-2998 colon
KM20L2 colon = system: KM20L2 colon
UACC-257 melanoma = system: UACC-257 melanoma
HOP-92 NSCLC = system: HOP-92 NSCLC
SR leukemia = system: SR leukemia
KM12 colon = system: KM12 colon
SK-MEL-2 melanoma = system: SK-MEL-2 melanoma
786-0 renal = system: 786-0 renal
SNB-75 CNS = system: SNB-75 CNS
TK-10 renal = system: TK-10 renal
CAKI-1 renal = system: CAKI-1 renal
SNB-19 CNS = system: SNB-19 CNS
A549 NSCLC = system: A549 NSCLC
M19-MEL melanoma = system: M19-MEL melanoma
OVCAR-4 ovarian = system: OVCAR-4 ovarian
SW-620 colon = system: SW-620 colon
NCI-H23 lung = system: NCI-H23 lung
DMS 273 small cell lung = system: DMS 273 small cell lung
XF 498 CNS = system: XF 498 CNS
SK-MEL-5 melanoma = system: SK-MEL-5 melanoma
COLO 205 colon = system: COLO 205 colon
SF-268 CNS = system: SF-268 CNS
RPMI-8226 leukemia = system: RPMI-8226 leukemia
OVCAR-5 ovarian = system: OVCAR-5 ovarian
HCT-116 colon = system: HCT-116 colon
CCRF-CEM leukemia = system: CCRF-CEM leukemia
LXFL 529 NSCLC = system: LXFL 529 NSCLC
NCI-H226 lung = system: NCI-H226 lung
NCI-H522 lung = system: NCI-H522 lung
SK-MEL-28 melanoma = system: SK-MEL-28 melanoma
A498 renal = system: A498 renal
M14 melanoma = system: M14 melanoma
SNB-78 CNS = system: SNB-78 CNS
UACC-62 melanoma = system: UACC-62 melanoma
DMS 114 small cell lung = system: DMS 114 small cell lung
EKVX NSCLC = system: EKVX NSCLC
RXF 393 renal = system: RXF 393 renal
K-562 leukemia = system: K-562 leukemia
HOP-18 NSCLC = system: HOP-18 NSCLC
RXF-631 renal = system: RXF-631 renal

## Cc1c(C(=O)CSc2nc3ccccc3[nH]2)c(=O)n(-c2ccccc2)n1C
OVCAR-8 ovarian
  TGI: > 100 µM
ACHN renal
  TGI: > 100 µM
SF-295 CNS
  TGI: > 100 µM
MOLT-4 leukemia
  TGI: > 100 µM
DLD-1 colon
  TGI: > 100 µM
UO-31 renal
  TGI: > 100 µM
SN12C renal
  TGI: > 100 µM
NCI-H460 lung
  TGI: > 100 µM
OVCAR-3 ovarian
  TGI: > 100 µM
SK-OV-3 ovarian
  TGI: > 100 µM
SF-539 CNS
  TGI: > 100 µM
U251 CNS
  TGI: > 100 µM
HT29 colon
  TGI: > 100 µM
IGROV1 ovarian
  TGI: > 100 µM
MALME-3M melanoma
  TGI: > 100 µM
HL-60(TB) leukemia
  TGI: > 100 µM
HOP-62 NSCLC
  TGI: > 100 µM
LOX IMVI melanoma
  TGI: > 100 µM
HCT-15 colon
  TGI: > 100 µM
HCC-2998 colon
  TGI: > 100 µM
KM20L2 colon
  TGI: > 100 µM
UACC-257 melanoma
  TGI: > 100 µM
HOP-92 NSCLC
  TGI: > 100 µM
SR leukemia
  TGI: > 100 µM
KM12 colon
  TGI: > 100 µM
SK-MEL-2 melanoma
  TGI: > 100 µM
786-0 renal
  TGI: > 100 µM
SNB-75 CNS
  TGI: > 100 µM
TK-10 renal
  TGI: > 100 µM
CAKI-1 renal
  TGI: > 100 µM
SNB-19 CNS
  TGI: > 100 µM
A549 NSCLC
  TGI: > 100 µM
M19-MEL melanoma
  TGI: > 100 µM
OVCAR-4 ovarian
  TGI: > 100 µM
SW-620 colon
  TGI: > 100 µM
NCI-H23 lung
  TGI: > 100 µM
DMS 273 small cell lung
  TGI: > 100 µM
XF 498 CNS
  TGI: > 100 µM
SK-MEL-5 melanoma
  TGI: > 100 µM
COLO 205 colon
  TGI: > 100 µM
SF-268 CNS
  TGI: > 100 µM
RPMI-8226 leukemia
  TGI: > 100 µM
OVCAR-5 ovarian
  TGI: > 100 µM
HCT-116 colon
  TGI: > 100 µM
CCRF-CEM leukemia
  TGI: > 100 µM
LXFL 529 NSCLC
  TGI: > 100 µM
NCI-H226 lung
  TGI: > 100 µM
NCI-H522 lung
  TGI: > 100 µM
SK-MEL-28 melanoma
  TGI: > 100 µM
A498 renal
  TGI: > 100 µM
M14 melanoma
  TGI: > 100 µM
SNB-78 CNS
  TGI: > 100 µM

## O=C1C=CC2(C=C1)C[C@H](NC(=O)C(F)(F)F)C(=O)O2
OVCAR-8 ovarian
  TGI: > 100 µM
ACHN renal
  TGI: > 100 µM
SF-295 CNS
  TGI: > 100 µM
MOLT-4 leukemia
  TGI: > 100 µM
DLD-1 colon
  TGI: 53.1 µM
UO-31 renal
  TGI: > 100 µM
SN12C renal
  TGI: > 100 µM
NCI-H460 lung
  TGI: > 100 µM
OVCAR-3 ovarian
  TGI: > 100 µM
SK-OV-3 ovarian
  TGI: > 100 µM
SF-539 CNS
  TGI: > 100 µM
U251 CNS
  TGI: > 100 µM
HT29 colon
  TGI: > 100 µM
MALME-3M melanoma
  TGI: 40.3 µM
HL-60(TB) leukemia
  TGI: 36.1 µM
HOP-62 NSCLC
  TGI: > 100 µM
LOX IMVI melanoma
  TGI: 51 µM
UACC-62 melanoma
  TGI: 37.7 µM
HCT-15 colon
  TGI: > 100 µM
HCC-2998 colon
  TGI: > 100 µM
KM20L2 colon
  TGI: > 100 µM
UACC-257 melanoma
  TGI: > 100 µM
DMS 114 small cell lung
  TGI: > 100 µM
SR leukemia
  TGI: > 100 µM
KM12 colon
  TGI: > 100 µM
786-0 renal
  TGI: > 100 µM
SNB-75 CNS
  TGI: > 100 µM
TK-10 renal
  TGI: > 100 µM
CAKI-1 renal
  TGI: > 100 µM
EKVX NSCLC
  TGI: 39.6 µM
SNB-19 CNS
  TGI: > 100 µM
A549 NSCLC
  TGI: > 100 µM
M19-MEL melanoma
  TGI: 63.8 µM
OVCAR-4 ovarian
  TGI: > 100 µM
NCI-H23 lung
  TGI: 69.4 µM
RXF 393 renal
  TGI: > 100 µM
SK-MEL-5 melanoma
  TGI: > 100 µM
COLO 205 colon
  TGI: > 100 µM
SF-268 CNS
  TGI: > 100 µM
RPMI-8226 leukemia
  TGI: > 100 µM
OVCAR-5 ovarian
  TGI: > 100 µM
K-562 leukemia
  TGI: 65.8 µM
HCT-116 colon
  TGI: > 100 µM
CCRF-CEM leukemia
  TGI: 50.9 µM
LXFL 529 NSCLC
  TGI: 69.1 µM
NCI-H226 lung
  TGI: > 100 µM
NCI-H522 lung
  TGI: 32.1 µM
SK-MEL-28 melanoma
  TGI: 38.3 µM
A498 renal
  TGI: > 100 µM
M14 melanoma
  TGI: > 100 µM
SNB-78 CNS
  TGI: > 100 µM

## C[N+](C)(C)CC1CCCC(C[N+](C)(C)C)C1O (stereo not given)
OVCAR-8 ovarian
  TGI: > 100 µM
ACHN renal
  TGI: > 100 µM
SF-295 CNS
  TGI: > 100 µM
MOLT-4 leukemia
  TGI: > 100 µM
HOP-18 NSCLC
  TGI: > 100 µM
DLD-1 colon
  TGI: > 100 µM
UO-31 renal
  TGI: > 100 µM
SN12C renal
  TGI: > 100 µM
NCI-H460 lung
  TGI: > 100 µM
OVCAR-3 ovarian
  TGI: > 100 µM
SK-OV-3 ovarian
  TGI: > 100 µM
SF-539 CNS
  TGI: > 100 µM
U251 CNS
  TGI: > 100 µM
HT29 colon
  TGI: > 100 µM
IGROV1 ovarian
  TGI: > 100 µM
MALME-3M melanoma
  TGI: > 100 µM
HL-60(TB) leukemia
  TGI: > 100 µM
HOP-62 NSCLC
  TGI: > 100 µM
LOX IMVI melanoma
  TGI: > 100 µM
UACC-62 melanoma
  TGI: > 100 µM
HCT-15 colon
  TGI: > 100 µM
HCC-2998 colon
  TGI: > 100 µM
KM20L2 colon
  TGI: > 100 µM
UACC-257 melanoma
  TGI: > 100 µM
HOP-92 NSCLC
  TGI: > 100 µM
DMS 114 small cell lung
  TGI: > 100 µM
SR leukemia
  TGI: > 100 µM
KM12 colon
  TGI: > 100 µM
SK-MEL-2 melanoma
  TGI: > 100 µM
786-0 renal
  TGI: > 100 µM
SNB-75 CNS
  TGI: > 100 µM
TK-10 renal
  TGI: > 100 µM
CAKI-1 renal
  TGI: > 100 µM
EKVX NSCLC
  TGI: > 100 µM
A549 NSCLC
  TGI: > 100 µM
M19-MEL melanoma
  TGI: > 100 µM
OVCAR-4 ovarian
  TGI: > 100 µM
SW-620 colon
  TGI: > 100 µM
NCI-H23 lung
  TGI: > 100 µM
DMS 273 small cell lung
  TGI: > 100 µM
RXF 393 renal
  TGI: > 100 µM
SK-MEL-5 melanoma
  TGI: > 100 µM
COLO 205 colon
  TGI: > 100 µM
SF-268 CNS
  TGI: > 100 µM
RPMI-8226 leukemia
  TGI: > 100 µM
OVCAR-5 ovarian
  TGI: > 100 µM
K-562 leukemia
  TGI: > 100 µM
HCT-116 colon
  TGI: > 100 µM
CCRF-CEM leukemia
  TGI: > 100 µM
RXF-631 renal
  TGI: > 100 µM
LXFL 529 NSCLC
  TGI: > 100 µM
NCI-H226 lung
  TGI: > 100 µM
NCI-H522 lung
  TGI: > 100 µM
SK-MEL-28 melanoma
  TGI: > 100 µM
A498 renal
  TGI: > 100 µM
M14 melanoma
  TGI: > 100 µM
SNB-78 CNS
  TGI: > 100 µM
